Experimental data published in patent US20240261249A1, “NOVEL SQUARAMIDE DERIVATIVE AND USE THEREOF” (PUSAN NATIONAL UNIVERSITY INDUSTRY-UNIVERSITY COOPERATION …, priority 2021, published 2024).
pIC50: −log10 of the molar value. Like-named read-outs stand apart in the source and are kept apart here.

What was measured:
Assay type in all cases: cell-based
[1] = system: PBMC (peripheral blood monocyte cells isolated from normal donors); assay: CCK-8 assay, PBMC (normal cells); conditions: for pIC50: 72 h, PBMC normal cells, culture for 3 days, CCK-8, tested 0-20 μM; for SI (selectivity index): K562 cells compared to PBMC
Description: PBMC (peripheral blood monocyte cells isolated from normal donors) cell lines were dispensed in RPMI medium supplemented with 10% FBS and 1% ABAM at 37° C. in the presence of 5% CO2, and then the test compounds were treated at concentrations of 0 μM, 1.25 μM, 2.5 μM, 5 μM, 10 μM, and 20 μM, respectively. After culture for 3 days, 10 μL of CCK-8 solution was treated and cultured for 4 hours. Subsequently, the absorbance at 450 nm was measured to obtain the IC50 value of each compound.

K562 cell line = assay: CCK-8 anti-proliferative assay, K562; conditions: Homo sapiens, 72 h, K562, culture for 3 days
Description: CCK-8 assay (cell counting kit-8 assay, Dojindo, Kumamoto, Japan) was performed. The K562 cell line was cultured in RPMI medium supplemented with 10% FBS and 1% ABAM at 37° C. in the presence of 5% CO2. Cells were treated with test compounds at concentrations of 0 μM, 1.25 μM, 2.5 μM, 5 μM, 10 μM, and 20 μM, respectively. After culture for 3 days, 10 μL of CCK-8 solution was treated and cultured for 4 hours. Subsequently, the absorbance was measured at 450 nm to obtain the IC50 value of each compound.
The experimental values for the K562 cell line are identical to biological Example 2.

Phospho-eIF2α (Ser51) = Phospho-eIF2α (Ser51) Sandwich ELISA in K562 cells; conditions: Homo sapiens, K562, 6 h, serum-free RPMI, 10 μM compound, control = 1, read-out: eIF2α phosphorylation, absorbance standardized to control (DMSO-treated) set to 1, at 10 μM
Outline: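 K562 cells in serum-free RPMI (37 °C, 5% CO2) were exposed to compounds at 10 μM for 6 h, then lysed, and 50 μg protein was run in the sandwich ELISA. Absorbance was normalised to the DMSO control set to 1.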

[2] = CCK-8, Table 3 (identical to Example 2), tested 0-20 μM, read-out: IC50 K562

SMILES	pIC50 [1]	SI (selectivity index) [1]	pIC50 (K562 cell line; CCK-8, Table 2, read-out: IC50)	pIC50 (K562 cell line; [2])	activity at 10 µM (Phospho-eIF2α (Ser51)) [%]
CC(C)(C)c1cccc(Nc2c(N[C@H]3CC[C@H](Oc4ccc(C(F)(F)F)cc4)CC3)c(=O)c2=O)c1 [Compound 28, 3-((3-(tert-Butyl)phenyl)amino)-4-(((1,4-trans)-4-(4-(trifluoromethyl)phenoxy)cyclohexyl)amino)cyclobut-3-ene-1,2-dione]	4.71	2.86	5.17	5.17	–
O=c1c(Nc2cccc(C(F)(F)F)c2)c(N[C@H]2CC[C@H](Oc3ccc([N+](=O)[O-])cc3)CC2)c1=O [Compound 25, 3-(((1,4-trans)-4-(4-Nitrophenoxy)cyclohexyl)amino)-4-((3-(trifluoromethyl)phenyl)amino)cyclobut-3-ene-1,2-dione]	4.80	1.27	4.91	4.91	140
CC(C)(C)c1cccc(Nc2c(N[C@H]3CC[C@H](Oc4ccc(C#N)cc4)CC3)c(=O)c2=O)c1 [Compound 29, 4-(((1,4-trans)-4-((2-((3-(tert-Butyl)phenyl)amino)-3,4-dioxocyclobut-1-en-1-yl)amino)cyclohexyl)oxy)benzonitrile]	4.77	3.82	5.39	5.39	176
CC(C)(C)c1cccc(Nc2c(N[C@H]3CC[C@H](Oc4ccc([N+](=O)[O-])cc4)CC3)c(=O)c2=O)c1 [Compound 30, 3-((3-(tert-Butyl)phenyl)amino)-4-(((1,4-trans)-4-(4-nitrophenoxy)cyclohexyl)amino)cyclobut-3-ene-1,2-dione]	4.89	2.61	5.29	5.29	112
N#Cc1ccc(O[C@H]2CC[C@H](Nc3c(Nc4cc(C#N)cc(C(F)(F)F)c4)c(=O)c3=O)CC2)cc1 [Compound 84, 3-((2-(((1,4-trans)-4-(4-Cyanophenoxy)cyclohexyl)amino)-3,4-dioxocyclobut-1-en-1-yl)amino)-5-(trifluoromethyl)benzonitrile]	4.53	2.26	5.00	5.00	143
CS(=O)(=O)c1ccc(O[C@H]2CC[C@H](Nc3c(Nc4cc(C#N)cc(C(F)(F)F)c4)c(=O)c3=O)CC2)cc1 [Compound 86, 3-((2-(((1,4-trans)-4-(4-(Methylsulfonyl)phenoxy)cyclohexyl)amino)-3,4-dioxocyclobut-1-en-1-yl)amino)-5-(trifluoromethyl)benzonitrile]	4.68	1.31	4.85	4.85	168
CC(C)(C)c1cccc(Nc2c(N[C@H]3CC[C@H](Oc4ccc(S(C)(=O)=O)cc4)CC3)c(=O)c2=O)c1 [Compound 31, 3-((3-(tert-Butyl)phenyl)amino)-4-(((1,4-trans)-4-(4-(methylsulfonyl)phenoxy)cyclohexyl)amino)cyclobut-3-ene-1,2-dione]	4.46	6.10	5.24	5.24	150
N#Cc1ccc(O[C@H]2CC[C@H](Nc3c(Nc4cccc(C(F)(F)F)c4)c(=O)c3=O)CC2)cc1 [Compound 24, 4-(((1,4-trans)-4-((3,4-Dioxo-2-((3-(trifluoromethyl)phenyl)amino)cyclobut-1-en-1-yl)amino)cyclohexyl)oxy)benzonitrile]	4.65	3.82	5.23	5.23	195
N#Cc1cc(Nc2c(N[C@H]3CC[C@H](Oc4ccc(C(F)(F)F)cc4)CC3)c(=O)c2=O)cc(C(F)(F)F)c1 [Compound 83, 3-((3,4-Dioxo-2-(((1,4-trans)-4-(4-(trifluoromethyl)phenoxy)cyclohexyl)amino)cyclobut-1-en-1-yl)amino)-5-(trifluoromethyl)benzonitrile]	4.71	4.46	5.40	5.40	184
O=c1c(Nc2cccc(Cl)c2)c(N[C@H]2CC[C@H](Oc3ccc([N+](=O)[O-])cc3)CC2)c1=O [Compound 20, 3-((3-Chlorophenyl)amino)-4-(((1,4-trans)-4-(4-nitrophenoxy)cyclohexyl)amino)cyclobut-3-ene-1,2-dione]	4.70	1.40	4.79	4.79	190
O=c1c(Nc2cccc(C(F)(F)F)c2)c(N[C@H]2CC[C@H](Oc3ccc(C(F)(F)F)cc3)CC2)c1=O [Compound 23, 3-(((1,4-trans)-4-(4-(Trifluoromethyl)phenoxy)cyclohexyl)amino)-4-((3-(trifluoromethyl)phenyl)amino)cyclobut-3-ene-1,2-dione]	4.97	2.77	5.40	5.40	201
N#Cc1cc(Nc2c(N[C@H]3CC[C@H](Oc4ccc([N+](=O)[O-])cc4)CC3)c(=O)c2=O)cc(C(F)(F)F)c1 [Compound 85, 3-((2-(((1,4-trans)-4-(4-Nitrophenoxy)cyclohexyl)amino)-3,4-dioxocyclobut-1-en-1-yl)amino)-5-(trifluoromethyl)benzonitrile]	–	–	< 4.70	–	116
